Source: patent publication US20230144824A1, “1H-PYRAZOLO[4,3-d]PYRIMIDINE COMPOUNDS AS TOLL-LIKE RECEPTOR 7 (TLR7) AGONISTS” (BRISTOL-MYERS SQUIBB COMPANY, priority 2020, published 2023)

Columns and labels:
[1] = biological target: T1, human TLR7 (Homo sapiens, UniProt Q9NYK1); assay: Human TLR7 agonist activity assay (HEK-Blue TLR7 SEAP reporter); type: cell-based; conditions: HEK-Blue TLR7 cells, 18 h treatment, average where assay performed multiple times, read-out: hTLR7 Agonism EC50
T1 construct: host or cells: HEK-Blue TLR7 cells (engineered human embryonic kidney cells)
T1 sequence (Q9NYK1 27-1049): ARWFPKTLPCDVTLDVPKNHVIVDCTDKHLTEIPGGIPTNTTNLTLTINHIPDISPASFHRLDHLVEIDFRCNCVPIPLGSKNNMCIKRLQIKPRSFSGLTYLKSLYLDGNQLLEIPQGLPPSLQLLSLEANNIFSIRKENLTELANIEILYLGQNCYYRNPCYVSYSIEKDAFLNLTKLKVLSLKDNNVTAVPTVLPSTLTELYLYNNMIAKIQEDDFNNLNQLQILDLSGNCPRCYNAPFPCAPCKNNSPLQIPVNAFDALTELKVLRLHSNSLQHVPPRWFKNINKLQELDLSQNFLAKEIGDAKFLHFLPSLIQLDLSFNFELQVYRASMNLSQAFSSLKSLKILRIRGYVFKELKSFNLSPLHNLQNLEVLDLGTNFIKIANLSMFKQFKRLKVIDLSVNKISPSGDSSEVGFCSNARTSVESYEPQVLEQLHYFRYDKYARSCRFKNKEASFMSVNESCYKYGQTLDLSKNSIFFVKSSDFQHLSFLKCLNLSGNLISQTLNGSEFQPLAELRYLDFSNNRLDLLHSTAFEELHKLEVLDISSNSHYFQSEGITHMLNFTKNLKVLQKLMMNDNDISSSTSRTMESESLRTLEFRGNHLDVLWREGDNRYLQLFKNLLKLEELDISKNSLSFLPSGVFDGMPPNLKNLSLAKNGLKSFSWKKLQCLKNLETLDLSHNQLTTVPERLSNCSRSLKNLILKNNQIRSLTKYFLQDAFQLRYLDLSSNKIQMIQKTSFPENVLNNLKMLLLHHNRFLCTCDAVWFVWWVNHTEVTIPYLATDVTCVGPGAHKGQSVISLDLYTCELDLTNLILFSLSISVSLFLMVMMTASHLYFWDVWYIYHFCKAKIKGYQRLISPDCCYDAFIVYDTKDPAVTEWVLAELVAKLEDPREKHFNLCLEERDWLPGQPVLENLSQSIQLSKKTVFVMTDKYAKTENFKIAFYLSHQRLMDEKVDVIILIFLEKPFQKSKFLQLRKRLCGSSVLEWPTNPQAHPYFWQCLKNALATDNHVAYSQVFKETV
How it was run: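 HEK-Blue TLR7 cells (15,000/well) treated with compound for 18 h at 37 °C, 5% CO2. Secreted SEAP measured with Quanti-Blue, 30 min, OD 620 nm. EC50 taken as concentration giving half-maximal response between baseline and maximum.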

[2] = tested on: CD69; assay: Induction of CD69 in human whole blood; type: cell-based; conditions: Homo sapiens, 17 h, 100% set to 1 uM of resiquimod, average where assay performed multiple times, read-out: hWB CD69 EC50
Procedure: The induction of Type I interferon (IFN) MX-1 genes and the B-cell activation marker CD69 are downstream events that occur upon activation of the TLR7 pathway. The following is a human whole blood assay that measures their induction in response to a TLR7 agonist.
Heparinized human whole blood was harvested from human subjects and treated with test TLR7 agonist compounds at 1 mM. The blood was diluted with RPMI 1640 media and Echo was used to predot 10 nL per well giving a final concentration of 1 uM (10 nL in 10 uL of blood). After mixing on a shaker for 30 sec, the plates were covered and placed in a 37° C. chamber for o/n=17 hrs. Fixing/lysis buffer was prepared (5×->1× in H2O, warm at 37° C.; Cat #BD 558049) and kept the perm buffer (on ice) for later use.
For surface markers staining (CD69): prepared surface Abs: 0.045 ul hCD14-FITC (ThermoFisher Cat #MHCD1401)+0.6 ul hCD19-ef450 (ThermoFisher Cat #48-0198-42)+1.5 ul hCD69-PE (cat #BD555531)+0.855 ul FACS buffer. Added 3 ul/well, spin1000 rpm for 1 min and mixed on shaker for 30 sec, put on ice for 30 mins. Stop stimulation after 30 minutes with 70 uL of prewarmed 1× fix/lysis buffer and use Feliex mate to resuspend (15 times, change tips for each plate) and incubate at 37 C for 10 minutes.
Centrifuge at 2000 rpm for 5 minutes aspirate with HCS plate washer, mix on shaker for 30 sec and then wash with 70 uL in dPBS and pelleted 2×s (2000 rpm for 5 min) and 50 ul wash in FACS buffer pelleted 1×s (2000 rpm for 5 min). Mix on shaker for 30 sec. For Intracellular markers staining (MX-1): Add 50 ul of BD Perm buffer III and mix on shaker for 30 sec. Incubate on ice for 30 minutes (in the dark). Wash with 50 uL of FACS buffer 2×(spin @2300 rpm×5 min after perm) followed by mixing on shaker for 30 sec. Resuspended in 20 ul of FACS buffer containing MX1 antibody ( )(4812)-Alexa 647: Novus Biologicals #NBP2-43704AF647) 20 ul FACS bf+0.8 ul hIgG+0.04 ul MX-1. Spin 1000 rpm for 1 min, mix on shaker for 30 se and the samples were incubated at RT in the dark for 45 minutes followed by washing 2×FACS buffer (spin @2300 rpm×5 min after perm). Resuspend 20 ul (35 uL total per well) of FACS buffer and cover with foil and place in 4° C. to read the following day. Plates were read on iQuePlus. The results were loaded into toolset and IC50 curves are generated in curve master. The y-axis 100% is set to 1 uM of resiquimod.

| SMILES | EC50 [1] [nM] | EC50 [2] [nM] |
| --- | --- | --- |
| CCC[C@@H](CCO)Nc1nc(N)nc2cnn(Cc3ncc(C4CCN(C(=O)CN(C)C)CC4)cc3OC)c12 [Compound 135, 1-(4-{6-[(5-amino-7-{[(3S)-1-hydroxyhexan-3-yl]amino}-1H-pyrazolo[4,3-d]pyrimidin-1-yl)methyl]-5-methoxypyridin-3-yl}piperidin-1-yl)-2-(dimethylamino)ethan-1-one] | 41.4 | 11.7 |
| CCC[C@@H](CCO)Nc1nc(N)nc2cnn(Cc3ncc(C4CCN(C(=O)CCN(C)C)CC4)cc3OC)c12 [Compound 136, 1-(4-{6-[(5-amino-7-{[(3S)-1-hydroxyhexan-3-yl]amino}-1H-pyrazolo[4,3-d]pyrimidin-1-yl)methyl]-5-methoxypyridin-3-yl}piperidin-1-yl)-3-(dimethylamino)propan-1-one] | 197 | 42.3 |
| COc1cc(C2CCNCC2)cnc1Cn1ncc2nc(N)nc(NCc3cc(C)on3)c21 [Compound 137, 1-{[3-methoxy-5-(piperidin-4-yl)pyridin-2-yl]methyl}-N7-[(5-methyl-1,2-oxazol-3-yl)methyl]-1H-pyrazolo[4,3-d]pyrimidine-5,7-diamine] | 357 | 118 |
| CCC[C@@H](CCO)Nc1nc(N)nc2cnn(Cc3ncc(C4CCN(C5CN(C)C5)CC4)cc3OC)c12 [Compound 138, (3S)-3-{[5-amino-1-({3-methoxy-5-[1-(1-methylazetidin-3-yl)piperidin-4-yl]pyridin-2-yl}methyl)-1H-pyrazolo[4,3-d]pyrimidin-7-yl]amino}hexan-1-ol] | 26.7 | 5.6 |
| CCC[C@@H](CCO)Nc1nc(N)nc2cnn(Cc3ncc(C4CCN(C5CN(C(C)C)C5)CC4)cc3OC)c12 [Compound 139, (3S)-3-({5-amino-1-[(3-methoxy-5-{1-[1-(propan-2-yl)azetidin-3-yl]piperidin-4-yl}pyridin-2-yl)methyl]-1H-pyrazolo[4,3-d]pyrimidin-7-yl}amino)hexan-1-ol] | 8.1 | 1.1 |
| COc1cc(C2CCN(C(=O)CCN(C)C)CC2)cnc1Cn1ncc2nc(N)nc(NCc3cc(C)on3)c21 [Compound 140, 1-(4-{6-[(5-amino-7-{[(5-methyl-1,2-oxazol-3-yl)methyl]amino}-1H-pyrazolo[4,3-d]pyrimidin-1-yl)methyl]-5-methoxypyridin-3-yl}piperidin-1-yl)-3-(dimethylamino)propan-1-one] | 530 | 128 |
| COc1cc(C2CCN(C3CCOCC3)CC2)cnc1Cn1ncc2nc(N)nc(NCc3cc(C)on3)c21 [Compound 141, 1-({3-methoxy-5-[1-(oxan-4-yl)piperidin-4-yl]pyridin-2-yl}methyl)-N7-[(5-methyl-1,2-oxazol-3-yl)methyl]-1H-pyrazolo[4,3-d]pyrimidine-5,7-diamine] | 73.2 | 16.2 |
| COc1cc(C2CCN(C(C)C)CC2)cnc1Cn1ncc2nc(N)nc(NCc3cc(C)on3)c21 [Compound 142, 1-({3-methoxy-5-[1-(propan-2-yl)piperidin-4-yl]pyridin-2-yl}methyl)-N7-[(5-methyl-1,2-oxazol-3-yl)methyl]-1H-pyrazolo[4,3-d]pyrimidine-5,7-diamine] | 43.3 | 5.6 |
| COc1cc(C2CCN(C3CNC3)CC2)cnc1Cn1ncc2nc(N)nc(NCc3cc(C)on3)c21 [Compound 143, 1-({5-[1-(azetidin-3-yl)piperidin-4-yl]-3-methoxypyridin-2-yl}methyl)-N7-[(5-methyl-1,2-oxazol-3-yl)methyl]-1H-pyrazolo[4,3-d]pyrimidine-5,7-diamine] | 295 | 265 |
| COc1cc(C2CCN(CCO)CC2)cnc1Cn1ncc2nc(N)nc(NCc3cc(C)on3)c21 [Compound 144, 2-(4-{6-[(5-amino-7-{[(5-methyl-1,2-oxazol-3-yl)methyl]amino}-1H-pyrazolo[4,3-d]pyrimidin-1-yl)methyl]-5-methoxypyridin-3-yl}piperidin-1-yl)ethan-1-ol] | 77 | 8.7 |
| CCCCNc1nc(N)nc2cnn(Cc3ncc(C4CCN(CC(C)(C)O)CC4)cc3OC)c12 [Compound 146, 1-[4-(6-{[5-amino-7-(butylamino)-1H-pyrazolo[4,3-d]pyrimidin-1-yl]methyl}-5-methoxypyridin-3-yl)piperidin-1-yl]-2-methylpropan-2-ol] | 28.5 | 25.8 |
| CCC[C@@H](CCO)Nc1nc(N)nc2cnn(Cc3ncc(C4CCN(C5CC6(CCC6)C5)CC4)cc3OC)c12 [Compound 147, (3S)-3-[(5-amino-1-{[3-methoxy-5-(1-{spiro[3.3]heptan-2-yl}piperidin-4-yl)pyridin-2-yl]methyl}-1H-pyrazolo[4,3-d]pyrimidin-7-yl)amino]hexan-1-ol] | 15.7 | 2.1 |
| CCC[C@@H](CCO)Nc1nc(N)nc2cnn(Cc3ncc(C4CCN(C5CC6(COC6)C5)CC4)cc3OC)c12 [Compound 148, (3S)-3-[(5-amino-1-{[3-methoxy-5-(1-{2-oxaspiro[3.3]heptan-6-yl}piperidin-4-yl)pyridin-2-yl]methyl}-1H-pyrazolo[4,3-d]pyrimidin-7-yl)amino]hexan-1-ol] | 14.1 | 0.49 |
| CCCCNc1nc(N)nc2c(Cl)nn(Cc3ncc(C4CCN(C5CCOCC5)CC4)cc3OC)c12 [Compound 149, N7-butyl-3-chloro-1-({3-methoxy-5-[1-(oxan-4-yl)piperidin-4-yl]pyridin-2-yl}methyl)-1H-pyrazolo[4,3-d]pyrimidine-5,7-diamine] | 869 | 590 |
| CCC[C@@H](CCO)Nc1nc(N)nc2cnn(Cc3ncc(C4CCN(C5CC6(CNC6)C5)CC4)cc3OC)c12 [Compound 150, (3S)-3-[(5-amino-1-{[5-(1-{2-azaspiro[3.3]heptan-6-yl}piperidin-4-yl)-3-methoxypyridin-2-yl]methyl}-1H-pyrazolo[4,3-d]pyrimidin-7-yl)amino]hexan-1-ol] | 88.8 | 44.1 |
| CCC[C@@H](CCO)Nc1nc(N)nc2cnn(Cc3ncc(C4CCN(CC(C)(C)O)CC4)cc3OC)c12 [Compound 151, (3S)-3-{[5-amino-1-({5-[1-(2-hydroxy-2-methylpropyl)piperidin-4-yl]-3-methoxypyridin-2-yl}methyl)-1H-pyrazolo[4,3-d]pyrimidin-7-yl]amino}hexan-1-ol] | 15.2 | 0.32 |
